Entries after “also recorded” stand apart in the source; their conditions may differ.
Experiments:
[1] = test system: S. aureus RN4220 TarG:W73C (m5); assay: MIC analysis of RN4220 carrying the mutant tarG allele TarG:W73C; format: cell-based, Staphylococcus aureus; settings: mutant allele exchanged into RN4220
Excerpt: (§1) Therefore, we conclude that TarG is a target of targocil. […] (Davidson A L, Dassa E, Orelle C, & Chen J (2008) Microbiology and Molecular Biology Reviews 72:317-364) In addition to functioning as antibiotics, inhibitors such as targocil, and derivatives thereof, could be valuable tools for mechanistic and structural analyses of ABC transporters.

[2] = biological target: T1, S. aureus TarJ (Staphylococcus aureus, UniProt Q2G1B9); assay: In vitro enzyme inhibition assay, TarJ; format: biochemical; settings: targocil 50 μg/mL
T1 sequence (Q2G1B9 1-341): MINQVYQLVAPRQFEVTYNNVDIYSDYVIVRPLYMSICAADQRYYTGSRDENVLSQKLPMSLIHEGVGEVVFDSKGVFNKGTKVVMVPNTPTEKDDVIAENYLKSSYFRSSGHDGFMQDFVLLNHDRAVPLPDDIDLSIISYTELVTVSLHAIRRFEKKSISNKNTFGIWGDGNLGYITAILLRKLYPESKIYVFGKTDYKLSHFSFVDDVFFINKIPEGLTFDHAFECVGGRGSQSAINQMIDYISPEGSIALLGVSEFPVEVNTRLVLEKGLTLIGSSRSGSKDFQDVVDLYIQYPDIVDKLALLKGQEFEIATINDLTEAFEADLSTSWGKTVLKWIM

[3] = test system: S. aureus strain expressing B. subtilis 168 TagGH; assay: Growth of S. aureus RN4220 expressing B. subtilis 168 tagGH; format: cell-based, Staphylococcus aureus; settings: 28° C., 12 h, OD600
Description: (§2) (A) Targocil MIC data for a panel of Gram-positive strains, including MRSA clinical isolates B5271 and 5340A. Growth was monitored in triplicate after 12 h at 28° C. using optical density. (B) Two dimensional drug interaction analysis between tunicamycin and targocil grown for 18 h at 30° C. […] At higher concentrations, tunicamycin is toxic because it inhibits cell wall biosynthesis. […] Varying concentrations of drug were added to […] of S. aureus RN4220 after 5 h and cell count was monitored over time at 30° C. […] Cells were grown at 28° C. for 12 h and monitored for growth using optical density (OD600). Data were normalized to the DMSO controls for each strain. (E) Two classes of mutants were examined: phage resistant (m1 3) and phage sensitive (m4-5).

[4] = test system: S. aureus RN4220; assay: Kill curve analysis; format: cell-based, Staphylococcus aureus; settings: 10^6 cfu/mL S. aureus RN4220, 30° C.
Description: as §2

[5] = test system: IPTG-inducible tarO strain of S. aureus; assay: Growth of the IPTG-inducible tarO strain as a function of targocil concentration; format: cell-based, Staphylococcus aureus
Excerpt: (Top) Schematic of the IPTG-inducible tarO operon. […] Data were normalized to the DMSO controls for each strain.

[6] = biological target: T2, S. aureus TarI (Staphylococcus aureus, UniProt Q2G1C0); assay: In vitro enzyme inhibition assay, TarI (HPLC); format: biochemical; settings: targocil 50 μg/mL; enzyme 200 nM
T2 construct: made in house
T2 sequence (Q2G1C0 1-238): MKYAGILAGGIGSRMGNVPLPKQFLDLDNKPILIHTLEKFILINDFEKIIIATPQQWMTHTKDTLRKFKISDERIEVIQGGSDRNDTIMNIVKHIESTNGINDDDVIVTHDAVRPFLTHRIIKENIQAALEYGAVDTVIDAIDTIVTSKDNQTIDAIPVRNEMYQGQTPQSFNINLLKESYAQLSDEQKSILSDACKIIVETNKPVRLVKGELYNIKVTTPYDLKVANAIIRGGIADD
Description: S. aureus TarB, D, F, I, and L were cloned, overexpressed and purified as described previously (S. Brown, Y. H. Zhang, S. Walker, Chemistry & Biology 15, 12, Jan. 2008.) Radiometric in vitro assays were run to test the inhibitory effects of targocil on Tar B, D, F, and L, while TarI was assayed for targocil inhibition using an HPLC assay using conditions similar to those previously reported (ibid). See below for exact reaction conditions. […] In each case, a reaction with no targocil served as a negative control (active enzymatic reaction) and a reaction with heat-treated enzyme served as a positive control (no enzymatic reaction). Targocil was incubated with all reaction components except the substrates at room temperature. After 10 minutes, substrates were added and the reactions were allowed to proceed for 60 minutes. The reactions were quenched with DMF and the products were imaged/monitored as previously described (ibid).
TarI in vitro inhibition assay protocol and data. […] The reactions were monitored by HPLC using an anion exchange column, Phenosphere 5μ SAX 250×4.6 mm, 5 μm (Phenomenex), to record the disappearance of the CTP peak and production of a new CDP ribitol peak (Buffer A: 5 mM NH4H2PO4, pH 2.8, Buffer B: 750 mM NH4H2PO4, pH 3.7, isocratic elution 75% B over 20 minutes, UV monitored at 271 nm).

[7] = test system: S. aureus strains, including five MRSA strains; assay: In vitro MIC against a panel of S. aureus strains including MRSA; format: cell-based, Staphylococcus aureus
Description: as §2
(G. Bou, (2007) Methods Mol Biol 391, 29)

[8] = test system: S. aureus RN4220 TarG:F82L (m4); assay: MIC analysis of RN4220 carrying the mutant tarG allele TarG:F82L; format: cell-based, Staphylococcus aureus; settings: mutant allele exchanged into RN4220
Excerpt: as §1

SMILES: CCN(CC)c1nc2c(S(=O)(=O)c3ccccc3)nnn2c2ccc(Cl)cc12 [7-chloro-N,N-diethyl-3-(phenylsulfonyl)-[1,2,3]triazolo[1,5-a]quinazolin-5-amine]
- resistance to targocil of TarG:W73C strain [1]: fully resistant; also recorded: confer resistance
- inhibition of TarJ [2]: None of these enzymes was inhibited
- resistance to targocil of strain expressing B. subtilis 168 TagGH [3]: fully resistant; also recorded: complete resistance
- mode of action in kill curve (bacteriostatic or bactericidal) [4]: bacteriostatic
- effect on cell growth, tarO not induced ([5]; in the absence of IPTG): no effect
- effect on cell growth, tarO induced ([5]; in the presence of IPTG): inhibited cell growth
- inhibition of TarI [6]: None of these enzymes was inhibited
- effectiveness against strains of S. aureus ([7]; RN4220, RN450, Newman strain, Wood strain): effective against numerous strains of S. aureus
- in vitro MIC values against all tested S. aureus strains ([7]; including five MRSA strains): low μg/mL range
- species selectivity of antibiotic activity ([7]; panel of Gram-positive strains): selective for S. aureus
- resistance to targocil of TarG:F82L strain [8]: fully resistant; also recorded: confer resistance
